From US20240000950A1, “THERAPEUTIC CURE-PRO COMPOUNDS FOR TARGETED DEGRADATION OF BET DOMAIN PROTEINS, AND METHODS OF MAKING AND USING THEM” (CORNELL UNIVERSITY, priority 2020, published 2024)
Entries after “also recorded” stand apart in the source; their conditions may differ.

Tests used:
BRD4 = BRD4 (Homo sapiens, UniProt O60885); assay: Summary of E3 ligase directed degradation of BRD4, estimated from Western Blot or WES (Tables 1-6); type: cell-based; design: endogenous in cells; host or cells: HeLa, MCF7 or HCT116; settings: for Degradation of BRD4, combination with CRBN ligand [drawing 422]: CRBN ligand drawn as drawing 422 (by the text apparently 8066); for Degradation of BRD4, combination with CRBN ligand [drawing 397]: aromatic 1,2-diol- or hindered cis-1,2-diol-containing CRBN ligand drawn as drawing 397 (by the text apparently 8046); for Degradation of BRD4, combination with CRBN ligand [drawing 457]: aryl-boronic acid-containing CRBN ligand drawn as drawing 457 (by the text apparently 8048)
Description: HeLa, MCF7, or HCT116 cells (2.5-3×10^6) were treated for 24 hours with the indicated compounds solubilized in DMSO. The cells were washed in ice-cold PBS and were then lysed in RIPA lysis buffer (150 mM NaCl, 5 mM EDTA, 1% NP-40, 0.5% sodium deoxycholate, 0.1% SDS, 50 mM Tris, pH 8.0) with Roche protease inhibitor complete cocktail and phosphatase inhibitors (10 mM sodium fluoride, 10 mM sodium pyrophosphate, 1 mM sodium orthovanadate and 20 mM β-glycerophosphate). The total protein concentrations were determined by Bradford Protein Assay and 10-20 μg of protein was loaded onto 4-15% Tris-Glycine gradient gels (Biorad). After standard gel electrophoresis, the separated proteins were transferred to PVDF membrane by wet transfer. The immunoblots were then blocked for 1 hour in 5% skim milk in TBST or 5% BSA in TBST, according to manufacturer's instructions, before an overnight incubation at 4° C. with indicated antibodies and membranes. Membranes were then incubated with the appropriate horseradish peroxidase-conjugated secondary antibodies (1:5,000 dilution) for 1 h at room temperature and the bands were visualized using the Clarity Max Western ECL Substrate (Biorad) and the ChemiDoc Imaging System (Biorad). Signal was detected with ECL Western Blotting Substrate (Pierce) and X-ray film processed with a Konica SRX-101 X-ray film processor or captured by Bio-Rad's Chemidoc Imaging system.
WES Simple analysis was performed on WES system (ProteinSimple-Biotechne) according to the manufacturer's instructions. Total protein concentrations of cell lysates were determined by the Pierce BCA kit (Thermo Fisher). 3 μL of 0.3 μg/uL of the protein lysate was loaded onto a 12- to 230-kDa WES assay plate (ProteinSimple) where 300 nL sample was withdrawn through a capillary, subjected to electrophoretic separation of proteins by size, and followed by the simultaneous, HRP-based detection of proteins using the Anti-Rabbit Detection Module (Proteinsimple: #DM-001). The electropherograms were checked then the automatic peak detection was manually corrected if it was required.
A black check mark indicates efficacy of 30% to 70% or higher protein degradation.

MV-4-11 cells = assay: CellTiter-Glo cell viability, MV-4-11 cells; type: cell-based
Description: All cell lines were purchased from ATCC or DSMZ and grown at 37° C. with 5% C02. Human HeLa cells were cultured in complete growth medium (Dulbecco's modified Eagle's medium (DMEM) supplemented with 10% FBS); MCF7 cells were cultured in complete growth medium (Dulbecco's modified Eagle's medium (DMEM) supplemented with 10% FBS and 0.01 mg/ml human recombinant insulin (Sigma Aldrich); Namalwa and MOLM-13 cells were cultured in complete growth medium (RPMI 1640 medium supplemented with 10% FBS); MV-4-11 were cultured in complete growth medium (Iscove's Modified Dulbecco's medium, supplemented with 10% FBS); HCT116 cells were cultured in complete growth medium (McCoy's 5a Medium supplemented with 10% FBS). For cellular degradation of BRD4 studies, cells were seeded in a 12-well plate at 70-80% confluency, allowed to attach overnight, and incubated with the indicated compounds for the indicated time. When indicated, a 15-minute pretreatment with 10 μM pomalidomide, 10 μM VHL298, 10 μM Nutlin3a, 1 μM MG-132 or 1 μM Carfilzomib was performed before the addition of CURE-PROs. For washout studies, after CURE-PRO treatment, media was aspirated and incubated with complete medium for the indicated time before lysis.
CellTiter-Glo® 2.0 Cell Viability Assay (Promega) was carried out following the manufacturer's recommendations. Cells were seeded at a density of 1000 cells/well in a white 96 well plates (Corning, #3917) in a total volume of 100 μl with respective monomers, combinations of BRD ligands together with E3 ligase ligands or vehicle control treatment. After a 72 h incubation, 100 ul of the CellTiter-Glo® substrate was added per well and luminescence was read on a Spectramax M5 (Molecular Devices). Dose-response curves were generated using Graphpad Prism software.
MV-4-11 cells (5×104) were treated for 24 hours with the sample compounds solubilized in DMSO. The compounds were added at 1 nM-100 μM each. Cellular viability was determined using the CellTiter-Glo® Luminescent Cell Viability Assay (Promega) described above. FIGS. 19-22 depict the CURE-PRO-mediated loss of cellular viability for BRD monomers (JQ1 derivatives comprising of catechol linkers), and CRBN ligand, 8049 (pomalidomide derivatives comprising boronic acid linkers) combined in a 1:1 ratio.
MV-4-11 cells (1×104) were treated for 72 hours with the compounds solubilized in DMSO. Compounds were added at 10 nM-100 μM each. Cellular viability was determined using the CellTiter-Glo® Luminescent Cell Viability Assay (Promega) described above. FIGS. 47-54 depict the CURE-PRO-mediated loss of cellular viability for BRD monomers (JQ1 derivatives comprising of boronic acid linkers), and CRBN ligands, 8046, 8047, and 8066 (pomalidomide derivatives comprising diol linkers) combined in a 1:1 ratio.

[1] = 72 h, 10 nM-100 μM, cotreated 1:1 with each of CRBN ligands 8066, 8046 and 8047, compared to monomers alone

## CCNC(=O)C[C@@H]1N=C(c2ccc(Cl)cc2)c2cc(OCCCCC(=O)Nc3cccc(B(O)O)c3)ccc2-n2c(C)nnc21 [BRD-E20, (3-(5-(((4S)-6-(4-chlorophenyl)-4-(2-(ethylamino)-2-oxoethyl)-1-methyl-4H-benzo[f][1,2,4]triazolo[4,3-a][1,4]diazepin-8-yl)oxy)pentanamido)phenyl)boronic acid]
BRD4; Table 1
  Degradation of BRD4, combination with CRBN ligand [drawing 422]: ✓ (A black check mark indicates efficacy of 30% to 70% or higher protein degradation)
  Degradation of BRD4, combination with CRBN ligand [drawing 397]: ✓ (A black check mark indicates efficacy of 30% to 70% or higher protein degradation)
BRD4; Table 2, aromatic 1,2-diol-containing MDM2 ligand drawn as drawing 430 (by the text apparently 8313)
  Degradation of BRD4, combination with MDM2 ligand [drawing 430]: ✓ (A black check mark indicates efficacy of 30% to 70% or higher protein degradation)
BRD4; Table 2, aromatic 1,2-diol-containing MDM2 ligand drawn as drawing 431 (by the text apparently 8314)
  Degradation of BRD4, combination with MDM2 ligand [drawing 431]: ✓ (A black check mark indicates efficacy of 30% to 70% or higher protein degradation)
BRD4; Table 3, aromatic 1,2-diol-containing VHL ligand drawn as drawing 442 (by the text apparently 8305)
  Degradation of BRD4, combination with VHL ligand [drawing 442]: ✓ (A black check mark indicates efficacy of 30% to 70% or higher protein degradation)
MV-4-11 cells; [1]
  toxicity / loss of cellular viability (CellTiter-Glo): reduced viability; also recorded: increased toxicity

## COc1ccc2c(c1)C(c1ccc(Cl)cc1)=N[C@@H](CC(=O)NCCNC(=O)/C=C/c1ccc(B(O)O)cc1)c1nnc(C)n1-2 [BRD-E29, (4-((E)-3-((2-(2-((4S)-6-(4-chlorophenyl)-8-methoxy-1-methyl-4H-benzo[f][1,2,4]triazolo[4,3-a][1,4]diazepin-4-yl)acetamido)ethyl)amino)-3-oxoprop-1-en-1-yl)phenyl)boronic acid]
BRD4; Table 1, CRBN ligand drawn as drawing 421 (by the text apparently 8047)
  Degradation of BRD4, combination with CRBN ligand [drawing 421]: ✓ (A black check mark indicates efficacy of 30% to 70% or higher protein degradation)
BRD4; Table 1
  Degradation of BRD4, combination with CRBN ligand [drawing 422]: ✓ (A black check mark indicates efficacy of 30% to 70% or higher protein degradation)
  Degradation of BRD4, combination with CRBN ligand [drawing 397]: ✓ (A black check mark indicates efficacy of 30% to 70% or higher protein degradation)
MV-4-11 cells; [1]
  toxicity / loss of cellular viability (CellTiter-Glo): reduced viability; also recorded: increased toxicity

## COc1ccc2c(c1)C(c1ccc(Cl)cc1)=N[C@@H](CC(=O)NCCOCCOCCNC(=O)c1cccc(B(O)O)c1)c1nnc(C)n1-2 [BRD-E46]
BRD4; Table 1
  Degradation of BRD4, combination with CRBN ligand [drawing 422]: ✓ (A black check mark indicates efficacy of 30% to 70% or higher protein degradation)
  Degradation of BRD4, combination with CRBN ligand [drawing 397]: ✓ (A black check mark indicates efficacy of 30% to 70% or higher protein degradation)
MV-4-11 cells; [1]
  toxicity / loss of cellular viability (CellTiter-Glo): reduced viability; also recorded: increased toxicity

## COc1ccc2c(c1)C(c1ccc(Cl)cc1)=N[C@@H](CC(=O)Nc1cccc(B(O)O)c1)c1nnc(C)n1-2 [BRD-E73, (3-(2-((4S)-6-(4-chlorophenyl)-8-methoxy-1-methyl-4H-benzo[f][1,2,4]triazolo[4,3-a][1,4]diazepin-4-yl)acetamido)phenyl)boronic acid]
MV-4-11 cells; [1]
  toxicity / loss of cellular viability (CellTiter-Glo): reduced viability; also recorded: increased toxicity

## COc1ccc2c(c1)C(c1ccc(Cl)cc1)=N[C@@H](CC(=O)NCCCCCNC(=O)c1cccc(O)c1O)c1nnc(C)n1-2 [BRD-N8, N-(5-(2-((4S)-6-(4-chlorophenyl)-8-methoxy-1-methyl-4H-benzo[f][1,2,4]triazolo[4,3-a][1,4]diazepin-4-yl)acetamido)pentyl)-2,3-dihydroxybenzamide]
MV-4-11 cells; 1 nM-100 μM, cotreated 1:1 with CRBN ligand 8049
  toxicity / loss of cellular viability (CellTiter-Glo): a concentration-dependent loss in cellular viability was observed; also recorded: increased toxicity

## COc1ccc2c(c1)C(c1ccc(Cl)cc1)=N[C@@H](CC(=O)NCCOCCOCCOCCNC(=O)c1ccc(O)c(O)c1)c1nnc(C)n1-2 [BRD-N44]
BRD4; Table 4
  Degradation of BRD4, combination with CRBN ligand [drawing 457]: ✓ (A black check mark indicates efficacy of 30% to 70% or higher protein degradation)

## CCNC(=O)C[C@@H]1N=C(c2ccc(Cl)cc2)c2cc(-c3ccc4cc(O)c(O)cc4c3)ccc2-n2c(C)nnc21 [BRD-N67]
BRD4; Table 4
  Degradation of BRD4, combination with CRBN ligand [drawing 457]: ✓ (A black check mark indicates efficacy of 30% to 70% or higher protein degradation)
BRD4; Table 4, aryl-boronic acid-containing CRBN ligand drawn as drawing 458 (by the text apparently 8049)
  Degradation of BRD4, combination with CRBN ligand [drawing 458]: ✓ (A black check mark indicates efficacy of 30% to 70% or higher protein degradation)

## COc1ccc2c(c1)C(c1ccc(Cl)cc1)=N[C@@H](CC(=O)Nc1ccc(O)c(O)c1)c1nnc(C)n1-2 [BRD-N68]
BRD4; Table 4
  Degradation of BRD4, combination with CRBN ligand [drawing 457]: ✓ (A black check mark indicates efficacy of 30% to 70% or higher protein degradation)

## COc1ccc2c(c1)C(c1ccc(Cl)cc1)=N[C@@H](CC(=O)NCCOCCOCCOCCOCCNC(=O)c1ccc(O)c(O)c1)c1nnc(C)n1-2 [BRD-N69]
BRD4; Table 4
  Degradation of BRD4, combination with CRBN ligand [drawing 457]: ✓ (A black check mark indicates efficacy of 30% to 70% or higher protein degradation)

## CCNC(=O)C[C@@H]1N=C(c2ccc(Cl)cc2)c2cc(OCCOCCOCCOCCOCCOCCNC(=O)c3ccc(O)c(O)c3)ccc2-n2c(C)nnc21 [BRD-N70, N-(17-(((4S)-6-(4-chlorophenyl)-4-(2-(ethylamino)-2-oxoethyl)-1-methyl-4H-benzo[f][1,2,4]triazolo[4,3-a][1,4]diazepin-8-yl)oxy)-3,6,9,12,15-pentaoxaheptadecyl)-3,4-dihydroxybenzamide]
BRD4; Table 4
  Degradation of BRD4, combination with CRBN ligand [drawing 457]: ✓ (A black check mark indicates efficacy of 30% to 70% or higher protein degradation)

## CCNC(=O)C[C@@H]1N=C(c2ccc(Cl)cc2)c2cc(OCCOCCOCCOCCOCCOCCNC(=O)c3cccc(O)c3O)ccc2-n2c(C)nnc21 [BRD-N71, N-(17-(((4S)-6-(4-chlorophenyl)-4-(2-(ethylamino)-2-oxoethyl)-1-methyl-4H-benzo[f][1,2,4]triazolo[4,3-a][1,4]diazepin-8-yl)oxy)-3,6,9,12,15-pentaoxaheptadecyl)-2,3-dihydroxybenzamide]
BRD4; Table 4
  Degradation of BRD4, combination with CRBN ligand [drawing 457]: ✓ (A black check mark indicates efficacy of 30% to 70% or higher protein degradation)
BRD4; Table 5, aryl-boronic acid-containing MDM2 ligand drawn as drawing 464 (apparently 8312)
  Degradation of BRD4, combination with MDM2 ligand [drawing 464]: ✓ (A black check mark indicates efficacy of 30% to 70% or higher protein degradation)

## O=C1CCC(N2C(=O)c3cccc(CNC(=O)c4cccc(B(O)O)c4)c3C2=O)C(=O)N1 (stereo not drawn) [compound 8049]
MV-4-11 cells; 1 nM-100 μM, monomer alone
  loss of cellular viability (CellTiter-Glo): little loss of viability was observed
